Like-named read-outs stand apart in the source and are kept apart here.
Legend:
[1] = target: T1, mtIMPDH (Mycobacterium tuberculosis, UniProt P9WKI7); test: biochemical; type: biochemical
[2] = target: T1, mtIMPDH; type: biochemical
[3] = test system: human-type 1 IMPDH; conditions: cited from earlier work
[4] = target: T1, mtIMPDH; test: biochemical
[5] = test system: human-type 2 IMPDH; conditions: cited from earlier work
[6] = target: hIMPDH1 (Homo sapiens, UniProt P20839); test: IMPDH inhibition assay; type: biochemical; conditions: hIMPDHs, isoform not specified; relative to compound 6
Sequence of hIMPDH1 (P20839 whole entry, canonical isoform): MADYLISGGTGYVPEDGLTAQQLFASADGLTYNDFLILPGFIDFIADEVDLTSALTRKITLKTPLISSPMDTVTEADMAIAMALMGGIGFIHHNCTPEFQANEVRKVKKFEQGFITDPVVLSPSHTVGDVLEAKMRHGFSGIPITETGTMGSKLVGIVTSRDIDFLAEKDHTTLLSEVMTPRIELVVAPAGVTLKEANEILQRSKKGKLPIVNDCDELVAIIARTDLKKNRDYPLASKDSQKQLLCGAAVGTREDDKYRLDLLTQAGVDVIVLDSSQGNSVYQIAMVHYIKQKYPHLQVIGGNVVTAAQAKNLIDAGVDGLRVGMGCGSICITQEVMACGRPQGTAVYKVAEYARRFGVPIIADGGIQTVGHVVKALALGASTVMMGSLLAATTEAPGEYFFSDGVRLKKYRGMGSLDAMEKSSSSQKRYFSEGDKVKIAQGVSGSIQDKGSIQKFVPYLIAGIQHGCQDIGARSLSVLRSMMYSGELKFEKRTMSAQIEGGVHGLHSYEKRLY

T1 sequence (P9WKI7 whole entry, looked up): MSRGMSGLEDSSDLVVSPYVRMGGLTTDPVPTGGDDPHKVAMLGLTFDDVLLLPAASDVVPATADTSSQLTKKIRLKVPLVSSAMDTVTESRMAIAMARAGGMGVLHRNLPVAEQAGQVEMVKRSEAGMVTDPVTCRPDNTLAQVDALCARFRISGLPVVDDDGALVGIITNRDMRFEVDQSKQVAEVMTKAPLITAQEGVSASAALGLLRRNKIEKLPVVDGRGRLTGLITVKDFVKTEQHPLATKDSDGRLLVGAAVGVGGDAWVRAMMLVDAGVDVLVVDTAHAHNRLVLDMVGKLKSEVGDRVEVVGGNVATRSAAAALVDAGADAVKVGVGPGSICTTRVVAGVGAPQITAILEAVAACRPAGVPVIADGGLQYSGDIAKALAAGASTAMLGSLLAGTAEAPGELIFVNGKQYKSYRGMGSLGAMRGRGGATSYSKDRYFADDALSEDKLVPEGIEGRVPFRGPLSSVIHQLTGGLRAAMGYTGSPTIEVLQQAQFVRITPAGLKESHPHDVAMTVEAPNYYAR

COc1c(C)c2c(c(O)c1C/C=C(\C)CCC(=O)O)C(=O)OC2 [Compound 1, Mycophenolic acid]
Hill-slope ([1]; fit of Ki^app against mtIMPDH): 1.5
Ki^app value against mtIMPDH with detergent ([1]; reaction buffer containing 0.1% Trition X-100, compared with buffer without): not affected

COc1c(C)c2c(c(O)c1C/C=C(\C)Cn1cc(COC[C@H]3O[C@@H](n4cnc5c(N)ncnc54)[C@H](O)[C@@H]3O)nn1)C(=O)OC2 [Compound 9, 6-((E)-4-(4-(Adenosin-5′-yl)methyl-1H-1,2,3-triazol-1-yl)-3-methylbut-2-en-1-yl)-7-hydroxy-5-methoxy-4-methylisobenzofuran-1(3H)-one]
activity against mtIMPDH (in words) [1]: significant inhibition
uncompetitive Kiu vs. IMP ([2]; IMP varied 1.4 μM to 1 mM, NAD fixed 0.5 mM, mtIMPDH […]): 2.2 ± 0.1 µM
uncompetitive Kiu vs. NAD ([2]; NAD varied 94 μM to 3 mM, IMP fixed 100 μM, mtIMPDH […]): 1.5 ± 0.1 µM
mode of inhibition ([2]; with respect to both NAD and IMP): uncompetitive

NC(=O)c1ccc[n+]([C@@H]2O[C@H](COP(=O)([O-])OP(=O)(O)OC[C@H]3O[C@@H](n4cnc5c(N)ncnc54)[C@H](O)[C@@H]3O)[C@@H](O)[C@H]2O)c1 [NAD, nicotinamide adenine dinucleotide]
Km ([3]; read-out: KM (NAD), ref [28]): 70 ± 10 µM
Ki ([3]; read-out: Ki (NAD), ref [28]): 2000 ± 600 µM
Ki [4]: 5000 ± 600 µM
Km ([5]; read-out: KM (NAD), ref [27]): 6 ± 1 µM
Ki ([5]; read-out: Ki (NAD), ref [27]): 590 ± 20 µM

COc1c(C)c2c(c(O)c1CCNCc1cn(C[C@H]3O[C@@H](n4cnc5c(N)ncnc54)[C@H](O)[C@@H]3O)nn1)C(=O)OC2 [Compound 6, 6-(2-(((1-(5′-Deoxy-adenosin-5′-yl)-1H-1,2,3-triazol-4-yl)methyl)amino)ethyl)-7-hydroxy-5-methoxy-4-methylisobenzofuran-1(3H)-one]
Ki [1]: > 100 µM

C#Cc1nc(N)c2ncn([C@@H]3O[C@H](CNS(=O)(=O)CS(=O)(=O)NCCc4c(O)c5c(c(C)c4OC)COC5=O)[C@@H](O)[C@H]3O)c2n1 [Compound 5c]
Ki [1]: > 100 µM

CCc1nc(N)c2ncn([C@@H]3O[C@H](CNS(=O)(=O)CS(=O)(=O)NCCc4c(O)c5c(c(C)c4OC)COC5=O)[C@@H](O)[C@H]3O)c2n1 [Compound 5d]
Ki [1]: > 100 µM

COc1c(C)c2c(c(O)c1CCn1cc(COC[C@H]3O[C@@H](n4cnc5c(N)ncnc54)[C@H](O)[C@@H]3O)nn1)C(=O)OC2 [Compound 8, 6-(2-(4-(Adenosin-5′-yl)methyl-1H-1,2,3-triazol-1-yl)ethyl)-7-hydroxy-5-methoxy-4-methylisobenzofuran-1(3H)-one]
Ki [1]: > 100 µM
fold more potent than compound 6 [6]: 10 fold

COc1c(C)c2c(c(O)c1CCOP(=O)(O)CP(=O)(O)OC[C@H]1O[C@@H](n3cnc4c(N)nc(-c5ccccc5)nc43)[C@H](O)[C@@H]1O)C(=O)OC2 [Compound 3b]
Ki [1]: > 100 µM

COc1c(C)c2c(c(O)c1C/C=C(\C)COP(=O)(O)CP(=O)(O)OC[C@H]1O[C@@H](n3cnc4c(N)ncnc43)[C@H](O)[C@@H]1O)C(=O)OC2 [Compound 4]
Ki [1]: > 100 µM

COc1c(C)c2c(c(O)c1CCNS(=O)(=O)CS(=O)(=O)NC[C@H]1O[C@@H](n3cnc4c(N)nc(-c5ccccc5)nc43)[C@H](O)[C@@H]1O)C(=O)OC2 [Compound 5b]
Ki [1]: > 100 µM

From article PMC2903443 (Journal of medicinal chemistry, 2010)
